Source: the NIST ThermoML archive (doi:10.1016/j.jct.2015.12.025)
Several values for one entry are separate records, joined by “and”; a condition that tells them apart may be missing. Equal entries are not always repeated. ± gives the expanded uncertainty stated by the source.

Legend:
[1] = 102 kPa, Liquid, Vibrating tube method
[2] = refractive index (Na D-line) (dimensionless); conditions: 102 kPa, Liquid, Standard Abbe refractometry
[3] = xn = mol fraction of the nth substance listed; conditions: 102 kPa, Liquid, Vibrating tube method
[4] = refractive index (Na D-line) (dimensionless); xn = mol fraction of the nth substance listed; conditions: 102 kPa, Liquid, Standard Abbe refractometry

## COc1ccccc1 [anisole]
[1]; 298.15 K
  mass density: 989.32 ± 1 kg/m3
[1]; 308.15 K
  mass density: 980.04 ± 1 kg/m3
[1]; 313.15 K
  mass density: 975.25 ± 1 kg/m3
[1]; 318.15 K
  mass density: 970.52 ± 1 kg/m3
[1]; 323.15 K
  mass density: 965.73 ± 1 kg/m3
[2]; 298.15 K
  refractive index: 1.5146 ± 0.00035
[2]; 308.15 K
  refractive index: 1.50865 ± 0.00035
[2]; 313.15 K
  refractive index: 1.50604 ± 0.00035
[2]; 318.15 K
  refractive index: 1.50341 ± 0.00035
[2]; 323.15 K
  refractive index: 1.50073 ± 0.00035

## CCc1ccccc1 [ethylbenzene]
[1]; 298.15 K
  mass density: 862.58 ± 1 kg/m3
[1]; 308.15 K
  mass density: 853.71 ± 1 kg/m3
[1]; 313.15 K
  mass density: 849.29 ± 1 kg/m3
[1]; 318.15 K
  mass density: 844.7 ± 1 kg/m3
[1]; 323.15 K
  mass density: 840.28 ± 1 kg/m3
[2]; 298.15 K
  refractive index: 1.49301 ± 0.00035
[2]; 303.15 K
  refractive index: 1.4903 ± 0.00035
[2]; 308.15 K
  refractive index: 1.4876 ± 0.00035
[2]; 313.15 K
  refractive index: 1.48491 ± 0.00035
[2]; 318.15 K
  refractive index: 1.48217 ± 0.00035
[2]; 323.15 K
  refractive index: 1.47944 ± 0.00035

## C[Si]1(CCC(F)(F)F)O[Si](C)(CCC(F)(F)F)O[Si](C)(CCC(F)(F)F)O1 (stereo not drawn) + CC(C)(C)c1ccccc1
[3]; 308.15 K, x1 = 1
  mass density: 1236.63 ± 1 kg/m3
[3]; 313.15 K, x1 = 1
  mass density: 1230.05 ± 1 kg/m3
[3]; 318.15 K, x1 = 1
  mass density: 1223.55 ± 1 kg/m3
[3]; 323.15 K, x1 = 1
  mass density: 1216.99 ± 1 kg/m3
[4]; 308.15 K, x1 = 1
  refractive index: 1.36011 ± 0.00035
[4]; 313.15 K, x1 = 1
  refractive index: 1.35808 ± 0.00035
[4]; 318.15 K, x1 = 1
  refractive index: 1.35609 ± 0.00035
[4]; 323.15 K, x1 = 1
  refractive index: 1.35407 ± 0.00035

## O=[N+]([O-])c1ccccc1 [nitrobenzene] + C[Si]1(CCC(F)(F)F)O[Si](C)(CCC(F)(F)F)O[Si](C)(CCC(F)(F)F)O1
[3]; 308.15 K, x2 = 0
  mass density: 1188.17 ± 1 kg/m3
[3]; 313.15 K, x2 = 0
  mass density: 1183.21 ± 1 kg/m3
[3]; 318.15 K, x2 = 0
  mass density: 1178.24 ± 1 kg/m3
[3]; 323.15 K, x2 = 0
  mass density: 1173.26 ± 1 kg/m3
[4]; 308.15 K, x2 = 0
  refractive index: 1.545 ± 0.00035
[4]; 313.15 K, x2 = 0
  refractive index: 1.5425 ± 0.00035
[4]; 318.15 K, x2 = 0
  refractive index: 1.54005 ± 0.00035
[4]; 323.15 K, x2 = 0
  refractive index: 1.53757 ± 0.00035

## O=[N+]([O-])c1ccccc1 [nitrobenzene]
[1]; 298.15 K
  mass density: 1198.2 ± 1 kg/m3
[1]; 303.15 K
  mass density: 1193.25 ± 1 kg/m3
[1]; 308.15 K
  mass density: 1188.17 ± 1 kg/m3
[1]; 313.15 K
  mass density: 1183.21 ± 1 kg/m3
[1]; 318.15 K
  mass density: 1178.24 ± 1 kg/m3
[1]; 323.15 K
  mass density: 1173.26 ± 1 kg/m3
[2]; 298.15 K
  refractive index: 1.54992 ± 0.00035
[2]; 303.15 K
  refractive index: 1.54746 ± 0.00035
[2]; 308.15 K
  refractive index: 1.545 ± 0.00035
[2]; 313.15 K
  refractive index: 1.5425 ± 0.00035
[2]; 318.15 K
  refractive index: 1.54005 ± 0.00035
[2]; 323.15 K
  refractive index: 1.53757 ± 0.00035

## CC(C)(C)c1ccccc1 [(1,1-dimethylethyl)benzene]
[1]; 298.15 K
  mass density: 862.28 ± 1 kg/m3
[1]; 308.15 K
  mass density: 854.12 ± 1 kg/m3
[1]; 313.15 K
  mass density: 849.98 ± 1 kg/m3
[1]; 318.15 K
  mass density: 845.87 ± 1 kg/m3
[1]; 323.15 K
  mass density: 841.72 ± 1 kg/m3
[2]; 298.15 K
  refractive index: 1.49009 ± 0.00035
[2]; 308.15 K
  refractive index: 1.48509 ± 0.00035
[2]; 313.15 K
  refractive index: 1.48256 ± 0.00035
[2]; 318.15 K
  refractive index: 1.48007 ± 0.00035
[2]; 323.15 K
  refractive index: 1.47754 ± 0.00035

## C[Si]1(CCC(F)(F)F)O[Si](C)(CCC(F)(F)F)O[Si](C)(CCC(F)(F)F)O1 (stereo not drawn)
[1]; 308.15 K
  mass density: 1236.63 ± 1 kg/m3
[1]; 313.15 K
  mass density: 1230.05 ± 1 kg/m3
[1]; 318.15 K
  mass density: 1223.55 ± 1 kg/m3
[1]; 323.15 K
  mass density: 1216.99 ± 1 kg/m3
[2]; 308.15 K
  refractive index: 1.36011 ± 0.00035
[2]; 313.15 K
  refractive index: 1.35808 ± 0.00035
[2]; 318.15 K
  refractive index: 1.35609 ± 0.00035 and 1.35608 ± 0.00035
[2]; 323.15 K
  refractive index: 1.35407 ± 0.00035

## COc1ccccc1 [anisole] + C[Si]1(CCC(F)(F)F)O[Si](C)(CCC(F)(F)F)O[Si](C)(CCC(F)(F)F)O1
[3]; 308.15 K, x2 = 0
  mass density: 980.04 ± 1 kg/m3
[3]; 313.15 K, x2 = 0
  mass density: 975.25 ± 1 kg/m3
[3]; 318.15 K, x2 = 0
  mass density: 970.52 ± 1 kg/m3
[3]; 323.15 K, x2 = 0
  mass density: 965.73 ± 1 kg/m3
[4]; 308.15 K, x2 = 0
  refractive index: 1.50865 ± 0.00035
[4]; 313.15 K, x2 = 0
  refractive index: 1.50604 ± 0.00035
[4]; 318.15 K, x2 = 0
  refractive index: 1.50341 ± 0.00035
[4]; 323.15 K, x2 = 0
  refractive index: 1.50073 ± 0.00035

## CCc1ccccc1 [ethylbenzene] + C[Si]1(CCC(F)(F)F)O[Si](C)(CCC(F)(F)F)O[Si](C)(CCC(F)(F)F)O1
[3]; 308.15 K, x2 = 0
  mass density: 853.71 ± 1 kg/m3
[3]; 313.15 K, x2 = 0
  mass density: 849.29 ± 1 kg/m3
[3]; 318.15 K, x2 = 0
  mass density: 844.7 ± 1 kg/m3
[3]; 323.15 K, x2 = 0
  mass density: 840.28 ± 1 kg/m3
[4]; 308.15 K, x2 = 0
  refractive index: 1.4876 ± 0.00035
[4]; 313.15 K, x2 = 0
  refractive index: 1.48491 ± 0.00035
[4]; 318.15 K, x2 = 0
  refractive index: 1.48217 ± 0.00035
[4]; 323.15 K, x2 = 0
  refractive index: 1.47944 ± 0.00035
